Tests used:
[1] = target: CMY-37 (Citrobacter freundii, UniProt P05193); conditions: read-out: IC50 β-lactamase CMY-37; class (C); nitrocefin 200 μM, 30-min pre-incubation, enzyme 0.2 nM
[2] = target: AmpC (PAE) (Pseudomonas aeruginosa, UniProt P24735); conditions: read-out: IC50 β-lactamase AmpC (PAE); class (C); nitrocefin 200 μM, 30-min pre-incubation, enzyme 0.4 nM
[3] = target: AmpC (P99) (Enterobacter cloacae, UniProt P05364); conditions: read-out: IC50 β-lactamase AmpC (P99); class (C); nitrocefin 200 μM, 30-min pre-incubation, enzyme 0.2 nM
[4] = target: SHV-1 (Klebsiella pneumoniae, UniProt P0AD64); conditions: read-out: IC50 β-lactamase SHV-1; class (A); nitrocefin 200 μM, 30-min pre-incubation, enzyme 0.075 nM
[5] = tested on: K. pneumoniae BAA-1898; assay: MIC of ceftazidime (CAZ) at fixed concentration of compound (synergy), broth microdilution; format: cell-based; conditions: strain BAA-1898; MIC of CAZ, compound fixed at 4 μg/mL
How it was run: (§1)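 Step one, log-phase suspension set to 5×10^5 cfu/mL final in CA-MHB. Step two, incubation at 35° C under ambient air for 16-20 h. Step three, visual reading of the lowest growth-free concentration as MIC.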

[6] = tested on: E. coli 190317; assay: as above; format: cell-based; conditions: strain 190317; MIC of CAZ, compound fixed at 4 μg/mL
How it was run: as §1

[7] = tested on: K. pneumoniae 6299; assay: as above; format: cell-based; conditions: strain 6299; MIC of CAZ, compound fixed at 4 μg/mL
How it was run: as §1

[8] = tested on: E. cloacae P99; assay: as above; format: cell-based; conditions: strain P99; MIC of CAZ, compound fixed at 4 μg/mL
How it was run: as §1

[9] = tested on: P. aeruginosa CIP107051; assay: as above; format: cell-based; conditions: strain CIP107051; MIC of CAZ, compound fixed at 4 μg/mL
How it was run: as §1

[10] = target: OXA-48 (Klebsiella pneumoniae, UniProt Q6XEC0); conditions: read-out: IC50 β-lactamase OXA-48; class (D); nitrocefin 200 μM, 30-min pre-incubation, enzyme 0.3 nM
[11] = target: CTX-M-15 (Escherichia coli, UniProt Q9EXV5); conditions: read-out: IC50 β-lactamase CTX-M-15; class (A); nitrocefin 200 μM, 30-min pre-incubation, enzyme 0.4 nM
[12] = target: KPC-2 (Klebsiella pneumoniae, UniProt Q9F663); conditions: read-out: IC50 β-lactamase KPC-2; class (A); nitrocefin 200 μM, 30-min pre-incubation, enzyme 1 nM
[13] = tested on: K. pneumoniae BAA-1898; assay: MIC of compound alone, broth microdilution; format: cell-based; conditions: strain BAA-1898; compound alone
How it was run: as §1

[14] = tested on: E. coli 190317; assay: MIC of compound alone, broth microdilution; format: cell-based; conditions: strain 190317; compound alone
How it was run: as §1

[15] = tested on: K. pneumoniae 6299; assay: MIC of compound alone, broth microdilution; format: cell-based; conditions: strain 6299; compound alone
How it was run: as §1

[16] = tested on: E. cloacae P99; assay: MIC of compound alone, broth microdilution; format: cell-based; conditions: strain P99; compound alone
How it was run: as §1

[17] = tested on: P. aeruginosa CIP107051; assay: MIC of compound alone, broth microdilution; format: cell-based; conditions: strain CIP107051; compound alone
How it was run: as §1

[18] = target: TEM-1 (Escherichia coli, UniProt P62593); conditions: read-out: IC50 β-lactamase TEM-1; class (A); nitrocefin 200 μM, 30-min pre-incubation, enzyme 0.1 nM
[19] = target: OXA-11 (Pseudomonas aeruginosa, UniProt Q06778); conditions: read-out: IC50 β-lactamase OXA-11; class (D); nitrocefin 200 μM, 30-min pre-incubation, enzyme 1.2 nM
[20] = target: OXA-1 (Escherichia coli, UniProt P13661); conditions: read-out: IC50 β-lactamase OXA-1; class (D); nitrocefin 200 μM, 30-min pre-incubation, enzyme 0.2 nM
[21] = target: OXA-15 (Pseudomonas aeruginosa, UniProt Q51574); conditions: read-out: IC50 β-lactamase OXA-15; class (D); nitrocefin 200 μM, 30-min pre-incubation, enzyme 0.4 nM

Structure (SMILES)	IC50 [1] [nM]	IC50 [2] [nM]	IC50 [3] [nM]	IC50 [4] [nM]	MIC combination of CAZ and compounds of the invention at 4 μg/mL [5] [µg/mL]	MIC combination of CAZ and compounds of the invention at 4 μg/mL [6] [µg/mL]	MIC combination of CAZ and compounds of the invention at 4 μg/mL [7] [µg/mL]	MIC combination of CAZ and compounds of the invention at 4 μg/mL [8] [µg/mL]	MIC combination of CAZ and compounds of the invention at 4 μg/mL [9] [µg/mL]	IC50 [10] [nM]	IC50 [11] [nM]	IC50 [12] [nM]	MIC compounds of the invention alone [13] [µg/mL]	MIC compounds of the invention alone [14] [µg/mL]	MIC compounds of the invention alone [15] [µg/mL]	MIC compounds of the invention alone [16] [µg/mL]	MIC compounds of the invention alone [17] [µg/mL]	IC50 [18] [nM]	IC50 [19] [nM]	IC50 [20] [nM]	further results
NCc1ccn(C2=CC3CN(C2)C(=O)N3OS(=O)(=O)[O-])n1.O=C(O)C(F)(F)F.[Na+] (stereo not drawn) [Example 49, sodium and 2,2,2-trifluoroacetate [3-[3-(ammoniummethyl)pyrazol-1-yl]-7-oxo-1,6-diazabicyclo[3.2.1]oct-3-en-6-yl]sulfate]	150	1300	160	8.5	≤0.25	<0.25	≤0.25	≤0.25	4	46	2.6	180	>32	2	>32	16	>32	1.2	380	670	IC50 [21]: 510 nM
O=C1N2CC(n3cc(-c4nccs4)nn3)=CC(C2)N1OS(=O)(=O)[O-].[Na+] (stereo not drawn) [Example 55, sodium [7-oxo-3-(4-thiazol-2-yltriazol-1-yl)-1,6-diazabicyclo[3.2.1]oct-3-en-6-yl]sulfate]	35	230	6.3	0.61	1	0.25	4	8	8	0.27	0.41	0.82	>32	>32	>32	>32	>32	0.14	25	26	IC50 [21]: 3.4 nM
NC(=O)c1cn(C2=CC3CN(C2)C(=O)N3OS(=O)(=O)[O-])nn1.[Na+] (stereo not drawn) [Example 56, sodium [3-(4-carbamoyltriazol-1-yl)-7-oxo-1,6-diazabicyclo[3.2.1]oct-3-en-6-yl]sulfate]	38	290	12	1	≤0.25	<0.25	≤0.25	≤0.25	8	0.48	0.44	2.4	32	4	32	8	>32	0.17	37	30	IC50 [21]: 9 nM
NCc1cn(C2=CC3CN(C2)C(=O)N3OS(=O)(=O)[O-])nn1.O=C(O)C(F)(F)F.[Na+] (stereo not drawn) [Example 57, sodium and 2,2,2-trifluoroacetate [3-[4-(ammoniummethyl)triazol-1-yl]-7-oxo-1,6-diazabicyclo[3.2.1]oct-3-en-6-yl]sulfate]	31	550	21	2.6	≤0.25	<0.25	≤0.25	<0.25	4	1.1	0.75	11	16	0.5	>32	1	16	0.37	170	66	IC50 [21]: 6.4 nM
CN(C)Cc1cn(C2=CC3CN(C2)C(=O)N3OS(=O)(=O)[O-])nn1.[Na+] (stereo not drawn) [Example 59, sodium [3-[4-(dimethylamino)methyltriazol-1-yl]-7-oxo-1,6-diazabicyclo[3.2.1]oct-3-en-6-yl]sulfate]	72	590	34	2.5	≤0.25	<0.25	≤0.25	<0.25	8	1.2	0.55	12	>32	1	>32	2	>32	0.69	170	210	IC50 [21]: 6.6 nM
O=C([O-])Cc1cn(C2=CC3CN(C2)C(=O)N3OS(=O)(=O)[O-])nn1.[Na+].[Na+] (stereo not drawn) [Example 61]	41	1100	20	6.1	64	0.5	4	8	4	0.91	1.8	17	>32	32	32	32	>32	1.7	360	110	IC50 [21]: 19 nM

— patent US10722520B2, “Heterocyclic compounds and their use in preventing or treating bacterial infections” (MUTABILIS, priority 2016, dated 2020)
